We go through 4 compounds from patent US20040037022A1, “Aminoalcohol derivatives” (priority 2000, published 2004).

Molecules are shown by their SMILES.

For one data set, the system named is anesthetized dog. Put plainly: Effect on the increase in intravesical pressure induced by carbachol in anesthetized dog. Type of data set: in vivo. As to conditions: 0.32 mg/kg by intra-duodena route 30 minutes before carbachol (1.8 μg/kg); female Beagle dogs under halothane anesthesia; N = 2; Control 7.0 ± 1.0. As for the experimental part:
Effect on the increase in intravesical pressure induced by carbachol in anesthetized dog
Female Beagle dogs weighing 8.0-15.0 kg were fasted for 24 hours and maintained under halothane anesthesia. A 12F Foley catheter was lubricated with water soluble jelly, inserted into the urethral orifice and advanced approximately 10 cm until the balloon tip was placed well inside the bladder. The balloon was then inflated with 5 ml of room air and catheter slowly withdrawn just part the first resistance that is felt at the bladder neck. Urine was completely drained out through the catheter, and 30 ml of biological saline was infused. The catheter was connected to pressure transducer, and intravesical pressure was continuously recorded. The test compound was injected by intra-duodena route at 30 minutes before the administration of carbachol (1.8 μg/kg).

Consider `O=C(Nc1ccc(C[C@@H](CO)NC[C@H](O)COc2ccccc2)cc1)c1ccccc1` [4-(2), N-[4-[(2S)-3-Hydroxy-2-[[(2S)-2-hydroxy-3-phenoxypropyl)amino]propyl]phenyl)benzamide], for which the melting point was in the range of 124 to 125 °C.

For `CN(C(=O)c1ccccc1)c1ccc(C[C@@H](CO)NC[C@H](O)COc2ccccc2)cc1` [4-(11), N-[4-[(2S)-3-Hydroxy-2-[[(2S)-2-hydroxy-3-phenoxypropyl]amino]propyl]phenyl]-N-methylbenzamide], the melting point was in the range of 115 to 116 °C. On the same count and under the same terms, the result for `CCNC(=O)Nc1ccc(C[C@@H](CO)NC[C@H](O)COc2ccccc2)cc1` [Example 2, N-ethyl-N′-[4-[(2S)-3-hydroxy-2-[[(2S)-2-hydroxy-3-phenoxypropyl]amino]-propyl]phenyl]urea] reads 129 to 130 °C. As for `O=C(Nc1ccc(C[C@@H](CO)NC[C@H](O)COc2ccccc2)cc1)c1ccc[nH]1` [Test Compound (1), N-[4-[(2S)-3-Hydroxy-2-[[(2S)-2-hydroxy-3-phenoxypropyl)amino]propyl]phenyl]-1H-pyrrole-2-carboxamide], in the data set on anesthetized dog, the “Increase in intravesical pressure” value is given as 2.6 ± 0.05 mmHg.
